# Target: T1, cytochrome c (Saccharomyces cerevisiae, UniProt P00044, C108T)
# T1 construct: gene CYC1; 15N-labeled cytochrome c C102T, residues numbered from -5 to 103
# Assay: 1H-15N HSQC NMR titration, […] binding model, […] °C, pH […]
# T1 sequence (P00044 2-109 C108T): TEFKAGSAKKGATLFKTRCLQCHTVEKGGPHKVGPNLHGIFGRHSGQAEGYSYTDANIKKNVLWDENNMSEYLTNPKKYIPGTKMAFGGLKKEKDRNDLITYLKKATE
compound,measurement,value
"C[C@H](NC(=O)c1cc2c3c(c1)Cc1cc(C(=O)N[C@@H](C)C(=O)O)cc4c1OCCOCCOc1c(cc(C(=O)N[C@@H](C)C(=O)O)cc1Cc1cc(C(=O)N[C@@H](C)C(=O)O)cc(c1OCCOCCO3)C2)C4)C(=O)O [compound 1, Tetra-alanino-calix[4]arene-biscrown-3]",Kd,~400 µM

# Source: article PMC9737847, “Complex Formation between Cytochrome c and a Tetra-alanino-calix[4]arene” (International Journal of Molecular Sciences, 2022)
